Assay results reported in patent US11273167B2, “Compositions and methods for modulating ABHD2 activity” (The Regents of the University of California, priority 2015, dated 2022).
pIC50: −log10 of the molar value. Entries after “also recorded” stand apart in the source; their conditions may differ. Read-outs that look alike come from different tables or passages of the source.

Key:
human CatSper channel [1] = details: shown previously (Lishko et al., 2011); cited from earlier work
ABHD2 = target: T1, ABHD2 (Homo sapiens, UniProt P08910); assay: P4* UV cross-linking and streptavidin pull-down from human sperm, ABHD2 western blot; assay type: binding; details: 250 nM P4*
T1 construct: endogenous in cells; host or cells: human spermatozoa
T1 sequence (P08910 1-425): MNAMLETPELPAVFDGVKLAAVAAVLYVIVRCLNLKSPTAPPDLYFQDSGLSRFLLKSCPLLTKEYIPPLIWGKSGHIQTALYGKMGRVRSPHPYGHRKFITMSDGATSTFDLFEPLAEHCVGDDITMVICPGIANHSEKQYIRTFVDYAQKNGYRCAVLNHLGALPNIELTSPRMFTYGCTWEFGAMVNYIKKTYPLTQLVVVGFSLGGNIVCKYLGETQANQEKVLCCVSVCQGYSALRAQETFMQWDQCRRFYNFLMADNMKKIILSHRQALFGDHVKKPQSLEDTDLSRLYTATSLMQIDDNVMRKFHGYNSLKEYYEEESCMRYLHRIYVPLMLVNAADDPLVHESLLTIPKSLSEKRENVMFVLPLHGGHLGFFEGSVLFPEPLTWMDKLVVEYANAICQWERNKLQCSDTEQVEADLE
Experimental: After collection, sperm cells were treated with 0.5 units (U) of PI-PLC ([…]; Life Technologies, Carlsbad, Calif.) and incubated at 37° C. for an hour. […] Lysates were added to streptavidin coated magnetic beads (65001; Life Technologies, Carlsbad, Calif.) on ice for another thirty minutes with gentle agitation. Bound proteins were eluted by boiling in Laemmli Sample Buffer in the presence of beta-mercaptoethanol and subjected to SDS-polyacrylamide gel electrophoresis. […] Bands were excised and subjected to in-gel trypsinization after which peptides were extracted and dried for use in proteomic analysis. Protease inhibitors were used throughout the following procedure. Highly motile sperm swim-up fraction was subjected to osmotic shock by a 5 min incubation in 0.5×HS solution, addition of 10 mM EDTA and 10 mM DTT for 10 min, and sonication in a water bath at 25° C. for 5 min. Osmolarity was adjusted by addition of 10×PBS. 5× Laemmli sample buffer was added to a final 1× concentration and the DTT concentration adjusted to 20 mM. An additional 5 min sonication and boiling at 100° C. for 5 min were performed. Total crude cell lysate was loaded onto a 4-20% gradient Tris-HCl CriterionTM SDS-PAGE gel (BioRad). […] Following transfer to PVDF membranes, blots were blocked in 0.1% PBS-Tween20 with 3% IgG free BSA for 15 min and incubated in primary antibodies overnight at 4° C. […]

human CatSper channel [2] = target: human CatSper channel (Homo sapiens, UniProt Q7RTX7+Q86XQ3+Q8NEC5+Q96P56); assay: Whole-cell patch-clamp recording of CatSper currents (ICatSper) from human spermatozoa; assay type: cell-based
Experimental: (§1) All CatSper recordings was performed as described in (Lishko et al., 2013; Lishko et al., 2011). Briefly, gigaohm seal between the patch pipette and human spermatozoon was formed at the cytoplasmic droplet. Spermatozoa were patched either at the cytoplasmic droplet or, if the cytoplasmic droplet was inconspicuous, at the neck region. Seals were formed in high saline (HS) solution containing: 130 mM NaCl, 5 mM KCl, 1 mM MgSO4, 2 mM CaCl2, 5 mM glucose, 1 mM sodium pyruvate, 10 mM lactic acid, 20 mM HEPES, pH 7.4 adjusted with NaOH, 320 mOsm/L. Transition into the whole-cell mode was performed by applying short voltage pulses. Access resistance was 25-40 M. Cells were stimulated every 5 s. Data were sampled at 2-5 kHz and filtered at 1 kHz. Pipettes (11-17 MΩ) for whole-cell patch-clamp recordings of monovalent CatSper currents were filled with (in mM): 130 Cs-methanesulfonate, 70 HEPES, 3 EGTA, 2 EDTA, 0.5 TrisHCl, pH 7.4 adjusted with CsOH. Bath divalent free (DVF) solution for recording of monovalent CatSper currents contained (in mM): 140 Cs-methanesulfonate, 40 HEPES, 1 EDTA, pH 7.4 adjusted with CsOH. HEPES was substituted for MES in the event when acidic extracellular pH was used. HS solution was used to record baseline current while measuring monovalent CatSper currents (Ca^2+ in HS solution inhibits monovalent CatSper currents and causes Ca^2+-dependent inactivation of CatSper channels). Osmolarities of above mentioned solutions were approximately 321 mOsm/L and 335 mOsm/L for bath and pipette solutions, respectively. All electrophysiology experiments were performed at ambient temperature. IcatSper were elicited by voltage ramps from a holding potential of 0 mV. Ramps were applied from −80 mV to +80 mV. Data were analysed with Origin 7.0 and Clampfit 9.2. Statistical data were calculated as the mean±S.E.M., and (n) indicates number of experiments. To determine IcatSper inactivation rate current densities extracted from voltage ramps and acquired at +80 pA were plotted against time. The data were fitted with Boltzmann equation y=1/(1+exp((x−t)/dx)) and mean ti numbers were determined from (n) independent experiments. Statistical significance (t-test) is indicated by (**, p≤0.01 and *, p≤0.05).
(§2) Data were analyzed with Origin 7.0 and Clampfit 9.2. Statistical data were calculated and represented everywhere in text as the mean±S.E.M., and (n) indicates number of experiments. To determine ICatSper inactivation rate current densities extracted from voltage ramps and acquired at +80 pA were plotted against time. The data were fitted with Boltzmann equation y=1/[1+exp((x−τ)/dx)] and mean τ numbers were determined from (n) independent experiments. Hill equation was used to build dose-response curve: y=Vmax*x^n/(k^n+x^n). where n defines Hill slope factor, k defines IC50, and Vmax is close to 100% inhibition. Statistical significance (t test) is indicated by (****P<0.0001, ***P<0.001, **P<0.005 and *P<0.05).

human CatSper channel [3] = assay: as above; assay type: cell-based; details: for effect on P4-dependent activation of CatSper (CatSper P4 sensitivity): human spermatozoa treated with the agent, then P4; for activation of CatSper current (ICatSper): whole-cell patch clamp
Experimental: as §1, §2

mouse spermatozoa = assay: Acrosome exocytosis assessment in live capacitated mouse sperm; assay type: cell-based; details: 3 μM P4, 3 μM AA
mouse CatSper = target: T2, mouse CatSper (Mus musculus, UniProt A2ARP9+Q80W99+Q8BVN3+Q91ZR5); assay: Whole-cell patch-clamp recording of ICatSper from mouse spermatozoa; assay type: cell-based
T2 construct: Mouse spermatozoa were isolated from cauda epididymis; endogenous in cells; host or cells: mouse cauda epididymal spermatozoa

[4] = human spermatozoa, extracellular application

human CatSper channel (Homo sapiens, UniProt Q7RTX7+Q86XQ3+Q8NEC5+Q96P56), sequence (Q8NEC5 whole entry): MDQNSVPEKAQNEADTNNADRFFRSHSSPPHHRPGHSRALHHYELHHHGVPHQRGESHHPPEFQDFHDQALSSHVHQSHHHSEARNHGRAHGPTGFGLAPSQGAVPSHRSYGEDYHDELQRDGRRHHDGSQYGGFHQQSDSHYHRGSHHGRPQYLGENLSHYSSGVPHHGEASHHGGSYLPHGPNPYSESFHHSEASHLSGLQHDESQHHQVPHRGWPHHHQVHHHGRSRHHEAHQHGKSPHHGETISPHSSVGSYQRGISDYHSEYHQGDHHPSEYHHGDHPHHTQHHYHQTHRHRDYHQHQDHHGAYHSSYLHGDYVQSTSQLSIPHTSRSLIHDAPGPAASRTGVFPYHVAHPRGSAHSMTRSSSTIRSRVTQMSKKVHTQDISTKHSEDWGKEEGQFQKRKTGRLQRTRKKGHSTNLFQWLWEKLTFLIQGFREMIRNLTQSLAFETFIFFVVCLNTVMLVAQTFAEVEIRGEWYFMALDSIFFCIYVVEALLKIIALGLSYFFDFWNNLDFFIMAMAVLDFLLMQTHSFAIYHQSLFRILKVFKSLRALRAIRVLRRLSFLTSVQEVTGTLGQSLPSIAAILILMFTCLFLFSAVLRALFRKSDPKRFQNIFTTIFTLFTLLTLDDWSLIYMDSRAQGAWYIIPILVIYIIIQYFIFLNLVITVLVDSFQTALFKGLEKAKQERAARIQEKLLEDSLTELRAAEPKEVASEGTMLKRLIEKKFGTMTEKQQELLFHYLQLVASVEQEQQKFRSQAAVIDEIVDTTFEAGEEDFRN
human CatSper channel (Homo sapiens, UniProt Q7RTX7+Q86XQ3+Q8NEC5+Q96P56), sequence (Q86XQ3 whole entry): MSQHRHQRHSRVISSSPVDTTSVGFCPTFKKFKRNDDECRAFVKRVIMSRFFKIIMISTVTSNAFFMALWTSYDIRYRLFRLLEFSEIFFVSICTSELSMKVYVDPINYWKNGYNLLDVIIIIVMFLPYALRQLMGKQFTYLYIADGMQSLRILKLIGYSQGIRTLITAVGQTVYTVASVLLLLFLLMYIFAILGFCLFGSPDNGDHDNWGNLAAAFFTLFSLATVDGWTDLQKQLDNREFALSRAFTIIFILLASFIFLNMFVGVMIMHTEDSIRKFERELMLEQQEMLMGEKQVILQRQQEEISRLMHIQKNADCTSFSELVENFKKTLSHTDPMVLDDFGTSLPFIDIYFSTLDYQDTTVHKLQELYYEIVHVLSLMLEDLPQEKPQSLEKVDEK
human CatSper channel (Homo sapiens, UniProt Q7RTX7+Q86XQ3+Q8NEC5+Q96P56), sequence (Q96P56 whole entry): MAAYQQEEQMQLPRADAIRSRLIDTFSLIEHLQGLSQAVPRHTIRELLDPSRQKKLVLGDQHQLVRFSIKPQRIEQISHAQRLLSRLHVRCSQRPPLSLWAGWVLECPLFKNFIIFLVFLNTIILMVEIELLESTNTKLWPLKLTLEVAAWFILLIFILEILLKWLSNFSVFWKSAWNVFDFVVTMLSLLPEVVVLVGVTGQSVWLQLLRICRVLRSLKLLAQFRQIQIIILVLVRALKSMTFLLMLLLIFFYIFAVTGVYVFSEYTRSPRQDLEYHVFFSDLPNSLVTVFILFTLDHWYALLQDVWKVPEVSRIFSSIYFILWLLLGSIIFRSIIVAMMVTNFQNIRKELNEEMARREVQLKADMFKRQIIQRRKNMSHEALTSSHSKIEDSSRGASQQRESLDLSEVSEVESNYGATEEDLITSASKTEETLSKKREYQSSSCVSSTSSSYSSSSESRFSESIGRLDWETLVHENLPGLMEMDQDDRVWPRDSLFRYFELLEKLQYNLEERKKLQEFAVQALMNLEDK
human CatSper channel (Homo sapiens, UniProt Q7RTX7+Q86XQ3+Q8NEC5+Q96P56), sequence (Q7RTX7 whole entry): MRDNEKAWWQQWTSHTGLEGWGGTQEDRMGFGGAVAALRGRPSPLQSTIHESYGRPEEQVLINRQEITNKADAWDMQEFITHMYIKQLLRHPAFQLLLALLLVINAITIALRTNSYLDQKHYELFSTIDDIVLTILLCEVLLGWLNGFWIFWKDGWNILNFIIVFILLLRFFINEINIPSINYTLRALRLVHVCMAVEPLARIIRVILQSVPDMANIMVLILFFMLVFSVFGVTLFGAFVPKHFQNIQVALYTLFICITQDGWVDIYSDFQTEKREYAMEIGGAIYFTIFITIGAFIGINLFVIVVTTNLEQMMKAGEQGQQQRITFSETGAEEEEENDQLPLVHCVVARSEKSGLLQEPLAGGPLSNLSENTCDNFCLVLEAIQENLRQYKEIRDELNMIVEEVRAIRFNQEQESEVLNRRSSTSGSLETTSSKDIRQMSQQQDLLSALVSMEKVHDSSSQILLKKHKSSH

## estrogen
Human CatSper channel [1]
  interference with P4 activation of CatSper: do not interfere with P4 activation of CatSper
ABHD2
  ABHD2 in P4* pull-down in the presence of competing steroid: ABHD2 presence in pull-down experiments

## CCCCC/C=C\C/C=C\C/C=C\C/C=C\CCCC(=O)OCC(O)CO (centres unmarked) [1-AG, 1-arachidonoylglycerol]
Human CatSper channel [2]
  percent inhibition of CatSper outward current: 85.0±0.5%
  rate of CatSper inactivation, decline in current amplitude τ: 2.7 ± 0.2 min
Human CatSper channel [3]
  effect on nascent/basal CatSper current: inhibited ICatSper

## CCCCC/C=C\C/C=C\C/C=C\C/C=C\CCCC(=O)O [AA, arachidonic acid]
Human CatSper channel [3]; ICatSper at +80 mV and −80 mV over time
  regulation of CatSper by arachidonic acid: Dual Regulator of CatSper
Mouse spermatozoa
  stimulation of mouse acrosome reaction (AR): stimulate mouse AR to similar levels

## O=C(Nc1ccccc1)N1CCC(Cc2cnc3ccccc3c2)CC1 [PF750]
Human CatSper channel [3]
  effect on P4-dependent activation of CatSper (CatSper P4 sensitivity): did not change CatSper sensitivity to P4

## CCCCC/C=C\C/C=C\C/C=C\C/C=C\CCCC(=O)NCCO [AEA, anandamide]
Human CatSper channel [3]
  effect on nascent/basal CatSper current: does not change nascent CatSper behaviour; also recorded: had no effect

## lysophosphatidylethanolamine [lyso-PE]
Human CatSper channel [3]; [4]
  effect on nascent/basal CatSper current: Neither lysophosphatidylinositol (lyso-PI) nor lysophosphatidylethanolamine (lyso-PE) affected nascent CatSper current

## CCCCC/C=C\C/C=C\C/C=C\C/C=C\CCCC(=O)OC(CO)CO [2-AG, 2-arachidonoylglycerol]
Human CatSper channel [2]
  inhibition of ICatSper on intracellular application: could not mimic this effect
  percent inhibition of CatSper outward current: 92.4±3.5%
  rate of CatSper inactivation, decline in current amplitude τ: 1.6 ± 0.3 min
Human CatSper channel [2]; read-out: median inhibitory concentration (IC50) of ICatSper, inward currents
  pIC50: 6.17
Human CatSper channel [2]; read-out: median inhibitory concentration (IC50) of ICatSper, outward currents
  pIC50: 6.46
Human CatSper channel [3]
  effect on nascent/basal CatSper current: inhibited ICatSper
Mouse CatSper; compared with human ICatSper
  inhibition of mouse ICatSper: inhibits mouse ICatSper but with less efficacy than it inhibits human ICatSper
Mouse CatSper; mouse CatSper, n=5
  percent inhibition against the outward current: 73.9±4.4%

## OCC(O)CO [glycerol]
Human CatSper channel [3]
  effect on P4-dependent activation of CatSper (CatSper P4 sensitivity): did not ablate ICatSper or its regulation by P4
Human CatSper channel [3]; [4]
  effect on nascent/basal CatSper current: did not ablate ICatSper

## CCCCC[C@H](O)/C=C/[C@H]1[C@H](O)CC(=O)[C@@H]1CCCCCCC(=O)O [PGE1, prostaglandin E1]
Human CatSper channel [3]; human spermatozoa
  activation of CatSper current (ICatSper): stimulated CatSper activation

## CC(=O)[C@@]1(O)CC[C@H]2[C@@H]3CCC4=CC(=O)CC[C@]4(C)[C@H]3CC[C@@]21C [17-OH—P]
Human CatSper channel [3]; human spermatozoa
  activation of CatSper current (ICatSper): reversibly activated

## lysophosphatidylinositol [lyso-PI]
Human CatSper channel [3]; [4]
  effect on nascent/basal CatSper current: Neither lysophosphatidylinositol (lyso-PI) nor lysophosphatidylethanolamine (lyso-PE) affected nascent CatSper current
